Laboratory results reported in US9114126B2, “Na/K-ATPase ligands, ouabain antagonists, assays and uses thereof” (The University of Toledo, priority 2009, dated 2015).
“Also recorded” adds a separate entry of the source. Values belong to the molecule of their own block, whether it stands above or below them.

Legend:
purified Na/K-ATPase [1] = biological target: T1, purified Na/K-ATPase (Sus scrofa (Pig), UniProt P05024); assay: Na/K-ATPase activity, 96-well high throughput screen assay (released phosphate, BIOMOL GREEN); assay type: biochemical; conditions: for effect of changes in K+ concentration on compound-induced inhibition of Na/K-ATPase: data not shown
Protocol: The purified Na/K-ATPase was prepared from pig kidney. The specific activities of Na/K-ATPase of various kidney preparations were in the range of 900-1,200 μmol/mg/h, which were greater than 95% of the total ATPase activity. The high throughput screen is conducted in a 96-well format with the final reaction volume of 100 μl containing the following components: 100 mM NaCl, 20 mM KCl, 1 mM MgCl2, 1 mM EGTA, 20 mM Tris-HCl (pH 7.4) and 0.2 μg of purified Na/K-ATPase. After compounds were added, mixtures were incubated for 15 min at 37° C. for 15 min and reaction was initiated by adding 2 mM ATP.Mg mixture.
Reactions were carried out for 15 min and then stopped by the addition of 100 μl ice-cold trichloroacetic acid. Reaction mixtures were cleared by centrifugation, and assayed for released phosphate using the BIOMOL GREEN™ Reagent according to the manufacturer's instructions. In addition, the control Na/K-ATPase activity was measured in the presence and absence of 1 mM ouabain, and taken as 100%. Furthermore, 5 μM ouabain and 0.1% of DMSO were included in each plate as a positive and a vehicle control, respectively.

purified Na/K-ATPase [2] = biological target: T1, purified Na/K-ATPase; assay: 3H-ouabain binding to the purified Na/K-ATPase; conditions: 20 nM 3H ouabain
Protocol: FIG. 8: Effects of MB5 on ouabain binding to the purified Na/K-ATPase. The purified Na/K-ATPase (2 μg) was incubated with 20 nM ^3H ouabain in the presence of different concentrations of MB5.

purified Na/K-ATPase [3] = biological target: T1, purified Na/K-ATPase; assay: Na/K-ATPase activity assay (Example II), two-phase inhibition; assay type: biochemical
Protocol: FIGS. 7A-7C: Dose-dependent inhibition of Na/K-ATPase by MB5: FIG. 7A: The two phase inhibition of both low and high affinity.
The purified Na/K-ATPase was prepared from pig kidney. The specific activities of Na/K-ATPase of various kidney preparations were in the range of 900-1,200 μmol/mg/h, which were greater than 95% of the total ATPase activity. The Na/K-ATPase assay was conducted in the following reaction buffer with the final volume of 500 μl: 100 mM NaCl, 20 mM KCl, 1 mM MgCl2, 1 mM EGTA, 20 mM Tris-HCl (pH 7.4) and 1 μg of purified Na/K-ATPase. After compounds were added, mixtures were incubated for 15 min at 37° C. for 15 min and reaction was initiated by adding 2 mM ATP.Mg mixture. Reactions were carried out for 15 min and then stopped by the addition of 300 μl ice-cold trichloroacetic acid. Reaction mixtures were cleared by centrifugation, and assayed for released phosphate using the BIOMOL GREEN™ Reagent according to the manufacturer's instructions.

[4] = test system: ouabain-induced ERK activation in LLC-PK1 cells; assay: Ouabain-induced activation of ERKs in LLC-PK1 cells after MB5 pretreatment; assay type: cell-based, pig; conditions: 15 min pretreatment, ouabain 1 nM and 100 nM
Protocol: FIG. 9B: Effects of MB5 on ouabain-induced activation of ERKs. LLC-PK1 cells were pretreated with different concentrations of MB5 (1 nM, 10 μM) for 15 min, exposed to 1 nM ouabain for 10 min, and assayed for active ERKs as in FIG. 9A. A representative set of images is shown.
FIG. 9C: Effects of MB5 on ouabain-induced activation of ERKs. LLC-PK1 cells were pretreated with different concentrations of MB5 (1 nM, 10 μM) for 15 min, exposed to 100 nM ouabain for 10 min, and assayed for active ERKs as in FIG. 9A. A representative set of images is shown.
FIG. 9D: Effects of MB5 on ouabain-induced activation of ERKs. LLC-PK1 cells were pretreated with different concentrations of MB5 (1 nM, 10 μM) for 15 min, exposed to 1 nM ouabain for 1 hour, and assayed for active ERKs as in FIG. 9A. A representative set of images is shown.
(§1) LLC-PK1 cells grown on coverslips were serum starved for 24 h and treated with MB5 or ouabain for different times Immunostaining of p-ERK was performed using the commercial available ERK/MAPK (Phospho-Thr202/Tyr204) Phosphorylation/Translocation Cell-Based Assay Kit according to the manufacturer's instructions. The signals were detected by a Leica confocal microscope. Leica confocal software was used for data analysis.
Ouabain stimulates protein kinase cascades via a Src-dependent pathway in LLC-PK1 cells. […]

[5] = test system: EGF or dopamine-induced ERK activation in LLC-PK1 cells; assay: EGF- or dopamine-induced activation of ERKs in LLC-PK1 cells after MB5 pretreatment; assay type: cell-based, pig; conditions: MB5 1 nM, 10 μM, 15 min pretreatment
Protocol: FIG. 9E: Effects of MB5 on stimuli-induced activation of ERKs. LLC-PK1 cells were pretreated with different concentrations of MB5 (1 nM, 10 μM) for 15 min, exposed to epidermal growth factor (EGF) or Dopamine stimuli for either 10 or 3 min, and assayed for active ERKs as in FIG. 9A. A representative set of images is shown.
as §1
Ouabain stimulates protein kinase cascades via a Src-dependent pathway in LLC-PK1 cells. To determine whether MB5 can antagonize ouabain-induced signal transduction, treated LLC-PK1 cells were pre-treated with different concentrations of MB5 for 15 min and then exposed to ouabain or other stimuli.

Na-ATPase = Na-ATPase (Sus scrofa (Pig), UniProt P05024); assay: Na-ATPase activity inhibition; assay type: biochemical
Protocol: In the experiments depicted in FIG. 1A, the dose-response curves of MB7 were compared with ouabain. […] Furthermore, 10 μM MB7 produced 58±6% inhibition of Na-ATPase as did on Na/K-ATPase.

Na/K-ATPase/Src complex = Na/K-ATPase/Src complex (Sus scrofa (Pig), UniProt P05024); assay: Activation of receptor Na/K-ATPase/Src complex (pY418 Western blot); assay type: biochemical; conditions: reconstituted complex in test tube; ouabain 10 μM, MB7 1 and 10 μM
Protocol: FIG. 3: Effects of MB7 and ouabain on receptor Na/K-ATPase/Src complex. The purified Na/K-ATPase (2 μg) and purified Src were incubated in the presence of either 10 μM ouabain or 1 and 10 μM MB7 for 15 min and assayed for Src activation as described in “Experimental Procedures”. Values are mean SE of at least three independent experiments. **p<0.01 compared with control.
The activity of receptor Na/K-ATPase/Src complex was assayed. Briefly, the purified Src (4.5 U) was incubated with 2 μg of the purified Na/K-ATPase in phosphate-buffered saline (PBS) for 30 min at 37° C. Afterward, the Na/K-ATPase/Src complex was exposed to ouabain or MB7 for 10 min. Reaction was initiated by addition of 2 mM ATP/Mg^2+, continued for 5 min at 37° C. and was stopped by addition of SDS sample buffer. The activation of Src was measured by Western blot using anti-pY418 antibody. Total Src was also probed for loading control.

Src in A549 cells = assay: Src activation in A549 cells (Western blot); assay type: cell-based, human; conditions: 10 min; 100 nM ouabain, MB7 up to 10 μM
Protocol: FIG. 4A: Effects of MB7 and ouabain on Src and ERKs. A549 cells were treated with ouabain or MB7 for 10 min and cell lysates (50 μg/lane) were separated by SDS-PAGE and analyzed for Src activation as in FIG. 3. The values are mean±S.E. from four separate experiments. *, p<0.05 versus control.
The pig kidney epithelia cells (LLC-PK1 cells) and human lung cancer cells (A549 cells) were obtained from ATCC and maintained in Dulbecco's modified Eagle's medium (DMEM) in the presence of 10% FBS, 100 units/ml penicillin, and 100 μg/ml streptomycin in a 5% CO2 humidified incubator. To eliminate the confounding effect of growth factors in the serum, cells were serum starved for 24 h before experiments unless otherwise indicated.
Cells were washed with PBS and solubilized in ice-cold RIPA buffer containing 1% Nonidet P-40, 1% sodium deoxycholate, 150 mM NaCl, 1 mM EDTA, 1 mM phenylmethylsulfonyl fluoride, 1 mM sodium orthovanadate, 1 mM NaF, 10 μg/ml aprotinin, 10 μg/ml leupeptin, and 50 mM Tris-HCl (pH 7.4) as previously described (13). Cell lysates were then cleared by centrifugation at 14,000 rpm, and supernatants were used for protein assay and subjected to Western blot analysis. Samples were separated on SDS-PAGE (50 μg/lane) and transferred to a cellulose membrane. […] Protein signals were detected using an ECL kit and quantified using a Bio-Rad GS-670 imaging densitometer.

ERKs in LLC-PK1 cells = assay: p-ERK immunostaining in LLC-PK1 cells; assay type: cell-based, pig; conditions: for cellular ERK activity (active ERKs by immunostaining): LLC-PK1, 10 min, 100 nM ouabain, MB7 from 100 nM to 10 μM
Protocol: FIG. 4B: LLC-PK1 cells were treated with MB7 or ouabain for 10 minutes and were immunostained with the ERK/MAPK (Phospho-Thr202/Tyr204) Phosphorylation/Translocation Cell-Based Assay Kit according to the manufacturer's instructions. The images were collected as described under “Experimental Procedures.” The scale bar represents […]. Images from a representative experiment are shown. The quantitative data of p-ERK were collected from 40 different fields in three independent experiments and expressed as mean±S.E. *, p<0.05 versus control.
as §1, with “MB7” for “MB5”
as §1

[6] = inhibition of purified pig kidney Na/K-ATPase, Table II, read-out: IC50

Structure (SMILES): COc1cc(O)c2c(=O)c3c(OC)c(O)ccc3oc2c1 [2027BA1]
IC50 (purified Na/K-ATPase [1]; [6]): > 100 µM

Structure (SMILES): COc1cc(O)c2c(=O)c3c(O)c(OC)ccc3oc2c1 [2027BA2]
IC50 (purified Na/K-ATPase [1]; [6]): > 100 µM

Structure (SMILES): COc1ccc2oc3cc(OC)c(OC)c(OC)c3c(=O)c2c1 [C-017]
IC50 (purified Na/K-ATPase [1]; [6]): > 100 µM

IC50 (purified Na/K-ATPase [1]; [6]): > 100 µM
Structure (SMILES): O=c1c2ccccc2oc2cc(O)cc(O)c12 [MB1, 1,3-Dihydroxyxanthone]

Structure (SMILES): O=c1c2ccccc2oc2c(O)c(O)ccc12 [MB2, 3,4-Dihydroxyxanthone]
IC50 (purified Na/K-ATPase [1]; [6]): > 100 µM

IC50 (purified Na/K-ATPase [1]; [6]): 65 µM
Structure (SMILES): O=c1c2cccc(O)c2oc2cc(O)cc(O)c12 [MB3, 1,3,5-Trihydroxyxanthone]

IC50 (purified Na/K-ATPase [1]; [6]): 10 µM | concentration at which significant inhibition of ouabain binding was detected (purified Na/K-ATPase [2]): 0.1 nM | maximal inhibition of ouabain binding (purified Na/K-ATPase [2]; 10 μM MB5): 30% | inhibition at 50 µM (purified Na/K-ATPase [3]; at about 50 μM, read-out: inhibition by low affinity binding): 100% | inhibition of the ATPase activity by high affinity inhibition (purified Na/K-ATPase [3]; high affinity phase): about 25% | IC50 (purified Na/K-ATPase [3]; high affinity site, sub-nM concentrations): 0.04 nM
Structure (SMILES): O=c1c2cccc(O)c2oc2c(O)c(O)ccc12 [MB5, 3,4,5-Trihydroxyxanthone]
effect on ouabain-induced activation of ERKs ([4]; MB5 at 1 nM): significantly reduce | effect on ouabain-induced activation of ERKs ([4]; MB5 at 10 μM): completely blocked | effect on ERK activation induced by EGF or dopamine [5]: failed to affect ERK activation

Structure (SMILES): O=c1c2ccc(O)c(O)c2oc2cc(O)cc(O)c12 [MB6, 1,3,5,6-Tetrahydroxyxanthone]
IC50 (purified Na/K-ATPase [1]; [6]): 60 µM

effect on Na+ and ATP affinities of Na/K-ATPase (purified Na/K-ATPase [1]; MB7 at 10 μM, substrate dependence, FIG. 2A-2B): reduced both Na^+ and ATP affinities | effect of changes in K+ concentration on compound-induced inhibition of Na/K-ATPase (purified Na/K-ATPase [1]): no effect | IC50 (purified Na/K-ATPase [1]; dose-dependent inhibition of Na/K-ATPase, FIG. 1A, read-out: apparent IC50): 5 µM | IC50 (purified Na/K-ATPase [1]; [6]): 5 µM | inhibition at 10 µM (Na-ATPase): 58 ± 6% | activation of Na/K-ATPase-associated Src (Na/K-ATPase/Src complex): failed to activate Src
Structure (SMILES): O=c1c2ccc(O)c(O)c2oc2c(O)c(O)ccc12 [MB7, 3,4,5,6-Tetrahydroxyxanthone]
Src activation in A549 cells (Src in A549 cells): failed to do the same | cellular ERK activity (active ERKs by immunostaining) (ERKs in LLC-PK1 cells): failed to affect cellular ERK activity

Structure (SMILES): COc1ccc2c(=O)c3ccc(OC)c(OC)c3oc2c1 [MB8]
IC50 (purified Na/K-ATPase [1]; [6]): > 100 µM

Structure (SMILES): C[C@@H]1O[C@@H](O[C@H]2C[C@@H](O)[C@]3(CO)[C@H]4[C@H](O)C[C@]5(C)[C@@H](C6=CC(=O)OC6)CC[C@]5(O)[C@@H]4CC[C@]3(O)C2)[C@H](O)[C@H](O)[C@H]1O [ouabain]
IC50 (purified Na/K-ATPase [1]): ~5 µM | effect of changes in K+ concentration on compound-induced inhibition of Na/K-ATPase (purified Na/K-ATPase [1]): antagonized | activation of Na/K-ATPase-associated Src (Na/K-ATPase/Src complex): stimulated | Src activation in A549 cells (Src in A549 cells): stimulated Src | cellular ERK activity (active ERKs by immunostaining) (ERKs in LLC-PK1 cells): increased cellular amount of active ERKs | ERK stimulation (ERKs in LLC-PK1 cells; LLC-PK1, ouabain 1 nM and 100 nM, time and concentration-dependent): stimulated ERKs

Structure (SMILES): O=c1c2ccccc2oc2ccccc12 [xanthone, reference compound]
inhibition of Na/K-ATPase activity (purified Na/K-ATPase [1]; dose-response curves): failed to inhibit; also recorded: no detectable inhibition
